pIC50: −log10 of the molar value.
Molecular target: T1, Full length human recombinant HDAC6 protein (Homo sapiens, UniProt Q9UBN7)
T1 sequence (Q9UBN7 1-1215): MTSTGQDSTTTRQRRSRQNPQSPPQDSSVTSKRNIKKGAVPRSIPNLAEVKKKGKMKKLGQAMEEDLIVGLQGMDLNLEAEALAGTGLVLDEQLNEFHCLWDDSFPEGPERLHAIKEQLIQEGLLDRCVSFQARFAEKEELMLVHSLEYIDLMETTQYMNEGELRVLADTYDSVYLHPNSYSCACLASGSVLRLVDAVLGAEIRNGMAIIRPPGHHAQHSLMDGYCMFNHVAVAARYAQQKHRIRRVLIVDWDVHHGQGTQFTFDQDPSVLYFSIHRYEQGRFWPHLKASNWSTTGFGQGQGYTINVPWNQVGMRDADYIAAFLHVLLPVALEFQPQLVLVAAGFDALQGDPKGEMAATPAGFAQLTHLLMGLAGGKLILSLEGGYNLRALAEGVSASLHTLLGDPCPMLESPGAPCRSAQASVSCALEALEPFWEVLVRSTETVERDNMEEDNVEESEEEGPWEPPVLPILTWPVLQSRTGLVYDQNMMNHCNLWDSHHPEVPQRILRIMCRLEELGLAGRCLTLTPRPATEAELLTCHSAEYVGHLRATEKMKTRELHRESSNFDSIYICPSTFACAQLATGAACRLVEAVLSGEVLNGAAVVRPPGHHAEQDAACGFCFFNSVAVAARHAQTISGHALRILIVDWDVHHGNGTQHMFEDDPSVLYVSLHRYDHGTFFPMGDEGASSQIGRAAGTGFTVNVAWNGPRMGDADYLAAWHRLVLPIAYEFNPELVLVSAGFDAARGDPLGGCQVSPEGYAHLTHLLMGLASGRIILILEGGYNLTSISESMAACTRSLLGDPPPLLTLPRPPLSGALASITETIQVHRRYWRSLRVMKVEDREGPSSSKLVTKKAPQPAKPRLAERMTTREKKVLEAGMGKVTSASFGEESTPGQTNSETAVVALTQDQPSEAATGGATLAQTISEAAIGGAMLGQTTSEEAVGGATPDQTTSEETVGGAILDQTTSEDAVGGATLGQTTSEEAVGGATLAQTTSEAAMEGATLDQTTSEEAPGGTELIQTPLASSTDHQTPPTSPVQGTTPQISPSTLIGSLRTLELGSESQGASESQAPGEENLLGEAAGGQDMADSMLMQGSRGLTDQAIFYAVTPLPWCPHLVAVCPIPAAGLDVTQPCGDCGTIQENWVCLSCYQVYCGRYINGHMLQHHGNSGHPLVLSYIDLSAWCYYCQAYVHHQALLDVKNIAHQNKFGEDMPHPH
Experiment: In vitro histone deacetylase assay: enzymatic HDAC6 electrophoretic mobility shift assay
Format: biochemical
Conditions: 1 nM enzyme, 2 μM peptide substrate RHKK(Ac)-NH2, 25° C., 12 concentrations; read-out: Inhibitory Concentration (IC50) Values against HDAC6, Activity Range

| pIC50 | Compound |
| --- | --- |
| ≥ 7.00 | COC1(C(=O)N2Cc3ccc(C(=O)NO)cc3OC[C@@H]2C)CC1 [(S)-N-hydroxy-4-(1-methoxycyclopropane-1-carbonyl)-3-methyl-2,3,4,5-tetrahydrobenzo[f][1,4]oxazepine-8-carboxamide] |
| ≥ 7.00 | CC1(C(=O)N2Cc3ccc(C(=O)NO)cc3O[C@@H](c3ccccc3)C2)CCC1 [(S)-N-hydroxy-4-(1-methylcyclobutane-1-carbonyl)-2-phenyl-2,3,4,5-tetrahydrobenzo[f][1,4]oxazepine-8-carboxamide] |
| ≥ 7.00 | COC(C)(C)C(=O)N1Cc2ccc(C(=O)NO)cc2OC[C@@H]1C [(S)-N-hydroxy-4-(2-methoxy-2-methylpropanoyl)-3-methyl-2,3,4,5-tetrahydrobenzo[f][1,4]oxazepine-8-carboxamide] |
| 6.30 to 7.00 | C[C@H](C(=O)N1CCOc2cc(C(=O)NO)ccc2C1)c1ccccc1 [(S)-N-hydroxy-4-(2-phenylpropanoyl)-2,3,4,5-tetrahydrobenzo[f][1,4]oxazepine-8-carboxamide] |
| ≥ 7.00 | COCC1(C(=O)N2Cc3ccc(C(=O)NO)cc3OC[C@@H]2C)COC1 [(S)-N-hydroxy-4-(3-(methoxymethyl)oxetane-3-carbonyl)-3-methyl-2,3,4,5-tetrahydrobenzo[f][1,4]oxazepine-8-carboxamide] |
| ≥ 7.00 | COCC1(C(=O)N2CCOc3cc(C(=O)NO)ccc3[C@@H]2C)COC1 [(S)-N-hydroxy-4-(3-(methoxymethyl)oxetane-3-carbonyl)-5-methyl-2,3,4,5-tetrahydrobenzo[f][1,4]oxazepine-8-carboxamide] |
| ≥ 7.00 | C[C@H]1COc2cc(C(=O)NO)ccc2CN1C(=O)C(C)(C)CO [(S)-N-hydroxy-4-(3-hydroxy-2,2-dimethylpropanoyl)-3-methyl-2,3,4,5-tetrahydrobenzo[f][1,4]oxazepine-8-carboxamide] |
| ≥ 7.00 | C[C@H]1COc2cc(C(=O)NO)ccc2CN1C(=O)CC(C)(C)O [(S)-N-hydroxy-4-(3-hydroxy-3-methylbutanoyl)-3-methyl-2,3,4,5-tetrahydrobenzo[f][1,4]oxazepine-8-carboxamide] |
| ≥ 7.00 | COC(C)(C)CC(=O)N1Cc2ccc(C(=O)NO)cc2OC[C@@H]1C [(S)-N-hydroxy-4-(3-methoxy-3-methylbutanoyl)-3-methyl-2,3,4,5-tetrahydrobenzo[f][1,4]oxazepine-8-carboxamide] |
| ≥ 7.00 | COCCC(=O)N1Cc2ccc(C(=O)NO)cc2OC[C@@H]1C [(S)-N-hydroxy-4-(3-methoxypropanoyl)-3-methyl-2,3,4,5-tetrahydrobenzo[f][1,4]oxazepine-8-carboxamide] |
| ≥ 7.00 | COCC1(C(=O)N2Cc3ccc(C(=O)NO)cc3OC[C@@H]2C)CCOCC1 [(S)-N-hydroxy-4-(4-(methoxymethyl)tetrahydro-2H-pyran-4-carbonyl)-3-methyl-2,3,4,5-tetrahydrobenzo[f][1,4]oxazepine-8-carboxamide] |
| ≥ 7.00 | COCC1(C(=O)N2CCOc3cc(C(=O)NO)ccc3[C@@H]2C)CCOCC1 [(S)-N-hydroxy-4-(4-(methoxymethyl)tetrahydro-2H-pyran-4-carbonyl)-5-methyl-2,3,4,5-tetrahydrobenzo[f][1,4]oxazepine-8-carboxamide] |
| ≥ 7.00 | COC1(C(=O)N2Cc3ccc(C(=O)NO)cc3OC[C@@H]2C)CCOCC1 [(S)-N-hydroxy-4-(4-methoxytetrahydro-2H-pyran-4-carbonyl)-3-methyl-2,3,4,5-tetrahydrobenzo[f][1,4]oxazepine-8-carboxamide] |
| ≥ 7.00 | CC(C)[C@@H]1C[C@@H](C(=O)N2Cc3ccc(C(=O)NO)cc3OC[C@@H]2C)CCO1 [(S)-N-hydroxy-4-((2S,4S)-2-isopropyltetrahydro-2H-pyran-4-carbonyl)-3-methyl-2,3,4,5-tetrahydrobenzo[f][1,4]oxazepine-8-carboxamide] |
| ≥ 7.00 | O=C(NO)c1ccc2c(c1)OCCN(C(=O)[C@H]1CCCOC1)C2 [(S)-N-hydroxy-4-(tetrahydro-2H-pyran-3-carbonyl)-2,3,4,5-tetrahydrobenzo[f][1,4]oxazepine-8-carboxamide] |
